{
  "source": "paper PMC3477601",
  "about": "(Bioorganic & medicinal chemistry letters, 2012)",
  "key": {"PPAR-α [1]": {"biological_target": "T1, PPAR-α (Mus musculus, UniProt P23204)", "T1 sequence (P23204 whole entry)": "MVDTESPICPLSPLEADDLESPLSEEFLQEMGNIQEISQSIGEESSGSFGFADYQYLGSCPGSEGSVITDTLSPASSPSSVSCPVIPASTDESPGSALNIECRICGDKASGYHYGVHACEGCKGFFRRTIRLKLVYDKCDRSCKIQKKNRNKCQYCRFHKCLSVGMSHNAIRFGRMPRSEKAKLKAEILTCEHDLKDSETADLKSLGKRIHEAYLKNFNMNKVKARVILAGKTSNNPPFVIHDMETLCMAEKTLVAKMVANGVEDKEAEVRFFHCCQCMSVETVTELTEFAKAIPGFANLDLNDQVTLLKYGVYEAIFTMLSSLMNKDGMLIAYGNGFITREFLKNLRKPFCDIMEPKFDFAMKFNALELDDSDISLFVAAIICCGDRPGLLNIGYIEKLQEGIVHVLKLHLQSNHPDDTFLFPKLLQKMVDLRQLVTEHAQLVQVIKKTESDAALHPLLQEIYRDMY", "conditions": "post-PET"}, "PPAR-α [2]": {"biological_target": "T1, PPAR-α", "conditions": "dynamic PET 0–60 min post iv injection"}, "[3]": {"conditions": "PPAR-α overexpressing transgenic mice"}},
  "note": "Values joined by “and” are separate entries in the source; they are usually repeats but may differ in a detail not shown here. Equal values may be shown once. Read-outs that look alike come from different tables or passages of the source.",
  "data": [
    {"smiles": "CC(C)(Sc1ccc(CCN(CCCCC2CCCCC2)C(=O)Nc2ccc(O[11CH3])cc2)cc1)C(=O)O", "note": "[[^11C]KSM-01]", "values": [
      {"measurement": "Cardiac tissue uptake", "setting": "PPAR-α [1]; [3]", "result": "1.09 ± 0.246", "unit": "%ID/g"},
      {"measurement": "Blood uptake", "setting": "PPAR-α [1]; TG (male MHC PPAR-α overexpressing transgenic mice)", "result": "0.42±0.14", "unit": "%ID/g"},
      {"measurement": "Kidney uptake", "setting": "PPAR-α [1]; TG", "result": "2.58±0.56", "unit": "%ID/g"},
      {"measurement": "Liver uptake", "setting": "PPAR-α [1]; TG", "result": "55.031 ± 4.926", "unit": "%ID/g"},
      {"measurement": "Lung uptake", "setting": "PPAR-α [1]; TG", "result": "2.65±0.34", "unit": "%ID/g"},
      {"measurement": "Muscle uptake", "setting": "PPAR-α [1]; TG", "result": "0.36±0.15", "unit": "%ID/g"},
      {"measurement": "Spleen uptake", "setting": "PPAR-α [1]; TG", "result": "1.33±0.29", "unit": "%ID/g"},
      {"measurement": "Blood uptake", "setting": "PPAR-α [1]; WT (wild type mice)", "result": "0.42±0.10", "unit": "%ID/g"},
      {"measurement": "Liver uptake", "setting": "PPAR-α [1]; WT", "result": "60.699 ± 0.774 %ID/g and 60.69±0.77 %ID/g"},
      {"measurement": "Lung uptake", "setting": "PPAR-α [1]; WT", "result": "2.11±0.31", "unit": "%ID/g"},
      {"measurement": "Muscle uptake", "setting": "PPAR-α [1]; WT", "result": "0.35±0.18", "unit": "%ID/g"},
      {"measurement": "Spleen uptake", "setting": "PPAR-α [1]; WT", "result": "1.55±0.14", "unit": "%ID/g"},
      {"measurement": "Cardiac tissue uptake", "setting": "PPAR-α [1]; wild type littermates", "result": "0.479 ± 0.007", "unit": "%ID/g"},
      {"measurement": "Standard uptake value (SUV)", "setting": "PPAR-α [2]; [3]", "result": "0.68±0.007"},
      {"measurement": "Standard uptake value (SUV)", "setting": "PPAR-α [2]; control (wild-type) mice", "result": "0.37±0.09"}
    ]}
  ]
}
